ChEMBL document CHEMBL3994617, “2,8-bis(trifluoromethyl)quinoline analogs show improved anti-Zika virus activity, compared to mefloquine” (Eur J Med Chem, 2017)
pEC50: −log10 of the molar value.

Key:
Zika virus [1] = assay: Antiviral activity against Zika virus infected in African green monkey Vero cells assessed as inhibition of viral RNA replication at 10 uM after 24 hrs by RT-PCR method relative to control; format: functional
[2] = Cytotoxicity against African green monkey Vero cells assessed as reduction in cell viability after 72 hrs by XTT assay; format: cell-based; details: chlorocebus sabaeus
[3] = Selectivity index, ratio of CC50 for African green monkey Vero cells to EC50 for Zika virus infected in African green monkey Vero cells; format: toxicity; details: read-out: Ratio CC50/EC50
Zika virus [4] = assay: Antiviral activity against Zika virus infected in African green monkey Vero cells assessed as inhibition of viral RNA replication after 24 hrs by RT-PCR method; format: functional
Zika virus [5] = assay: Potency index, ratio of mefloquine EC50 to test compound EC50 for Zika virus infected in African green monkey Vero cells; format: functional
Vero = assay: Cytotoxicity against African green monkey Vero cells assessed as reduction in cell viability at 10 uM after 72 hrs by XTT assay relative to control; format: cell-based; details: chlorocebus sabaeus
Zika virus [6] = assay: Potency index, ratio of chloroquine EC50 to test compound EC50 for Zika virus infected in African green monkey Vero cells; format: functional

Compound	pEC50 (Zika virus [4])	inhibition at 10 µM (Zika virus [1])	CC50 at 72 h [2]	selectivity ratio [3]	Ratio EC50 (Zika virus [5])	Activity (Vero)	Ratio EC50 (Zika virus [6])
COc1cc(C(F)(F)F)nc2c(C(F)(F)F)cccc12		12%					
NCCCCCCCCCCNc1cc(C(F)(F)F)nc2c(C(F)(F)F)cccc12						> 80%	
FC(F)(F)c1cc(NCCCl)c2cccc(C(F)(F)F)c2n1	5.85	86.9%	316 µM	225	3		
CCCCNc1cc(C(F)(F)F)nc2c(C(F)(F)F)cccc12		58.8%					
NCCCNc1cc(C(F)(F)F)nc2c(C(F)(F)F)cccc12	5.70	79.9%	287 µM	143	2		
O[C@@H](c1cc(C(F)(F)F)nc2c(C(F)(F)F)cccc12)[C@H]1CCCCN1 [(S,R)-MEFLOQUINE]	5.44	78.8%	212 µM	58			3

Second part, led by results:

pEC50 (Zika virus [4])	Compound	inhibition at 10 µM (Zika virus [1])	CC50 at 72 h [2]	selectivity ratio [3]	Ratio EC50 (Zika virus [5])	Activity (Vero)	Ratio EC50 (Zika virus [6])
6.10	OCCNc1cc(C(F)(F)F)nc2c(C(F)(F)F)cccc12	74.4%	189 µM	236	5		
6.10	NCCNc1cc(C(F)(F)F)nc2c(C(F)(F)F)cccc12	78.6%	195 µM	243	5		
4.92	CCN(CC)CCCC(C)Nc1ccnc2cc(Cl)ccc12 (stereo not given) [CHLOROQUINE]		412 µM				
